From US8039492B2, “Substituted cyclic compound, its preparation process and its medical use” (Shanghai Institute of Materia Medica, Chinese Academy of …, priority 2005, dated 2011)
Each block holds one molecule with its values, some of them ahead of it.

Key:
[1] = target: T1, GLP-1R (Rattus norvegicus, UniProt P32301); experiment: Determination of the concentration of intracellular cAMP (CatchPoint Cyclic AMP kit) in HEK 293/GLP-1R+Luc cells; format: cell-based; conditions: 10 min
T1 construct: expressed in transfected cells; host or cells: HEK 293 (human embryonic kidney), stably transfected; self-made by National New Drugs Screening Center
T1 sequence (P32301 22-463): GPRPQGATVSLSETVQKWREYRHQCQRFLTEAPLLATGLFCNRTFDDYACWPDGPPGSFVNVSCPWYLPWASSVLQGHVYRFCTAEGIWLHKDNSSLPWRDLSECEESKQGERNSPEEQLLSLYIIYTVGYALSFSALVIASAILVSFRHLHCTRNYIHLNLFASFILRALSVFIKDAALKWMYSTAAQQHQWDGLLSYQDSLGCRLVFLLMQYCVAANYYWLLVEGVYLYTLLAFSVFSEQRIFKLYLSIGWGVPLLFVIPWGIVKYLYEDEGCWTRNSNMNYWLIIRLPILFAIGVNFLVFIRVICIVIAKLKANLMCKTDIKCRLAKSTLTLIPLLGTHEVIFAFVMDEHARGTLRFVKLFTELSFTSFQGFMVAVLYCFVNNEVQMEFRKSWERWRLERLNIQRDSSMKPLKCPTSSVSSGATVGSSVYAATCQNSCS
Text: 2. Determination of the Concentration of Intracellular cAMP
Since the concentration of intracellular cAMP can only be indirectly evaluated according to the above method for detecting the activation of reporter gene, it is necessary to determine the influence of active compounds on the concentration of intracellular cAMP by using a cAMP-determining kit, i.e., a functional re-screening.
cAMP-determining kit (Molecular Devices Co., CatchPoint® Cyclic AMP kit);
HEK 293/GLP-1R+Luc cell strain, in which GLP-1R and luciferase are stably expressed (self-made by National New Drugs Screening Center);
HEK 293/GLP-1R+Luc cells were inoculated, in a quantity of 20,000/100 μl/well, into a 96-well culture plate, and cultured at 37° C. overnight. The candidate compounds S4P, S3-20-32, S3-11-14, S6-14 and S8 were respectively diluted to a certain concentration gradient, which were then added, in a quantity of […], into the above 96-well culture plate. The culture was performed under the conditions of 37° C., 5% CO2 for 10 min. Thereafter, the concentration of intracellular cAMP was determined according to the specification in CatchPoint® Cyclic AMP kit.
The lower the reading was, the higher the concentration of intracellular cAMP was.

[2] = target: T1, GLP-1R; experiment: Antagonistic experiment with Exendin9-39 on S4P-induced reporter gene expression in HEK 293/GLP-1R+Luc cells; format: cell-based
Text: 3. Antagonistic Experiment with Exendin9-39
In order to corroborate that the active compounds had receptor specificity with respect to their activating effects on reporter gene and intracellular cAMP, Exendin9-39 (Eur. J. Pharmacol, 1994, 269: 183-191; Metabolism 2004, 53:252-259.), a specific antagonist of GLP-1R, was used to validate whether it could antagonize the agonistic activity of the above representative compounds to GLP-1R.
(§1) Cell strain: HEK 293/GLP-1R+Luc cell strain, in which GLP-1R and luciferase are stably expressed (self-made by National New Drugs Screening Center);
(§2) HEK 293/GLP-1R+Luc cells were inoculated, in a quantity of 20,000/100 μl/well, into a 96-well culture plate, and cultured at 37° C. overnight with a DMEM culture medium containing 10% fetal bovine serum and 500 μg/ml G418. Exendin9-39 was diluted to a certain concentration gradient, which was then added, in a quantity of 1 μl/well, into the above 96-well culture plate. The culture was performed under the conditions of 37° C., 5% CO2 for 6 h. Thereafter, the activity of luciferase was detected according to the specification in the kit of Steady-Glo™ luciferase analytic system, and the reading was performed by using a Victor^2 plate-reading machine.

[3] = target: T1, GLP-1R; experiment: Testing the expression of reporter gene (luciferase under cAMP response element) in HEK 293/GLP-1R+Luc cells; format: cell-based; conditions: 6 h
Text: 1. Testing the Expression of Reporter Gene
(§3) GLP-1R is a G-protein coupling receptor. When GLP-1R binds to an agonist, the Ga subunit of G protein is activated to stimulate adenylate cyclase, which leads to the increase in the concentration of intracellular cAMP. Since the promoter region of proinsulin gene has a cAMP response element, cAMP promotes, after binding to this response element, the transcription of the proinsulin gene, thereby stimulating the expression and secretion of insulin (Diabetes, 2000, Vol. 49: 1156-1164). The experimental method employs a human embryonal nephric cell strain (HEK 293) which is stably transfected with the expression vector of GLP-1R gene and the expression vector of luciferase reporter gene under the regulation of cAMP response element, to detect its response to the candidate compound (Cell Biology, 1992, Vol. 89: 8641-8645; Proc. Natl. Acad. Sci. U.S.A. 1987, Vol. 84: 3434-3438). When screening the candidate compounds, the compounds that may induce the expression of luciferase reporter gene are regarded as having the activity of activating GLP-1R.
as §1
as §2, with “Exendin9-39 was diluted to a certain concentration gradient, which was then added, in a quantity of 1 μl/well, into the above 96-well culture plate.” left out

[4] = test system: HEK 293/GLP-1R+Luc cells; experiment: Cytotoxicity noted in the reporter gene test; format: cell-based, human; conditions: 6 h
Text: as §3, with “When screening the candidate compounds, the compounds that may induce the expression of luciferase reporter gene are regarded as having the activity of activating GLP-1R.” left out
as §2, with “Exendin9-39 was diluted to a certain concentration gradient, which was then added, in a quantity of 1 μl/well, into the above 96-well culture plate. The culture was performed under the conditions of 37° C., 5% CO2 for 6 h.” left out

[5] = final concentration 0.00001 mg/ml
[6] = final concentration 0.00003 mg/ml
[7] = final concentration 0.0001 mg/ml
[8] = final concentration 0.0003 mg/ml
[9] = final concentration 0.001 mg/ml
[10] = final concentration 0.003 mg/ml

concentration of the intracellular cAMP (relative fluoresence intensity; lower reading = higher cAMP) [1, 5]: 3536.618 RFU
concentration of the intracellular cAMP (relative fluoresence intensity; lower reading = higher cAMP) [1, 6]: 2924.461 RFU
concentration of the intracellular cAMP (relative fluoresence intensity; lower reading = higher cAMP) [1, 7]: 2985.794 RFU
concentration of the intracellular cAMP (relative fluoresence intensity; lower reading = higher cAMP) [1, 8]: 2708.597 RFU
concentration of the intracellular cAMP (relative fluoresence intensity; lower reading = higher cAMP) [1, 9]: 1910.855 RFU
concentration of the intracellular cAMP (relative fluoresence intensity; lower reading = higher cAMP) [1, 10]: 2072.988 RFU
concentration of the intracellular cAMP (relative fluoresence intensity; lower reading = higher cAMP) ([1]; final concentration 0.01 mg/ml): 2310.616 RFU
concentration of the intracellular cAMP (relative fluoresence intensity; lower reading = higher cAMP) ([1]; final concentration 0.03 mg/ml): 2480.017 RFU
antagonistic effect of Exendin9-39 on S4P (% reaction, taking the reaction of 3 μM S4P as 100%) ([2]; Exendin9-39 final concentration 0.03 nM): 101.8115%
antagonistic effect of Exendin9-39 on S4P (% reaction, taking the reaction of 3 μM S4P as 100%) ([2]; Exendin9-39 final concentration 0.1 nM): 96.64%
antagonistic effect of Exendin9-39 on S4P (% reaction, taking the reaction of 3 μM S4P as 100%) ([2]; Exendin9-39 final concentration 0.3 nM): 83.84%
antagonistic effect of Exendin9-39 on S4P (% reaction, taking the reaction of 3 μM S4P as 100%) ([2]; Exendin9-39 final concentration 1 nM): 90.78%
antagonistic effect of Exendin9-39 on S4P (% reaction, taking the reaction of 3 μM S4P as 100%) ([2]; Exendin9-39 final concentration 3 nM): 72.84%
antagonistic effect of Exendin9-39 on S4P (% reaction, taking the reaction of 3 μM S4P as 100%) ([2]; Exendin9-39 final concentration 10 nM): 52.48%
antagonistic effect of Exendin9-39 on S4P (% reaction, taking the reaction of 3 μM S4P as 100%) ([2]; Exendin9-39 final concentration 30 nM): 32.33%
antagonistic effect of Exendin9-39 on S4P (% reaction, taking the reaction of 3 μM S4P as 100%) ([2]; Exendin9-39 final concentration 100 nM): 18.77%
antagonistic effect of Exendin9-39 on S4P (% reaction, taking the reaction of 3 μM S4P as 100%) ([2]; Exendin9-39 final concentration 300 nM): 15.97%
antagonistic effect of Exendin9-39 on S4P (% reaction, taking the reaction of 3 μM S4P as 100%) ([2]; Exendin9-39 final concentration 1000 nM): 27.97%
antagonistic effect of Exendin9-39 on S4P (% reaction, taking the reaction of 3 μM S4P as 100%) ([2]; Exendin9-39 final concentration 3000 nM): 14.57%
antagonistic effect of Exendin9-39 on S4P (% reaction, taking the reaction of 3 μM S4P as 100%) ([2]; Exendin9-39 final concentration 10000 nM): 15.22%
receptor specificity of the biological activity ([2]; antagonised by Exendin9-39): mediated by GLP-1R
expression of the reporter gene (% reaction, taking the reaction of 30 nM GLP-1 as 100%) ([3]; final concentration 0.000003 mg/ml): 5.157%
expression of the reporter gene (% reaction, taking the reaction of 30 nM GLP-1 as 100%) [3, 5]: 5.151%
expression of the reporter gene (% reaction, taking the reaction of 30 nM GLP-1 as 100%) [3, 6]: 5.276%
expression of the reporter gene (% reaction, taking the reaction of 30 nM GLP-1 as 100%) [3, 7]: 5.697%
expression of the reporter gene (% reaction, taking the reaction of 30 nM GLP-1 as 100%) [3, 8]: 10.19%
expression of the reporter gene (% reaction, taking the reaction of 30 nM GLP-1 as 100%) [3, 9]: 22.23%
expression of the reporter gene (% reaction, taking the reaction of 30 nM GLP-1 as 100%) [3, 10]: 35.55%
expression of the reporter gene (% reaction, taking the reaction of 30 nM GLP-1 as 100%) ([3]; final concentration 0.01 mg/ml): 41.19%
Molecule: COc1cc(C2C(NC(=O)c3ccc(NC(=O)C4CCCC4)cc3)(C(=O)O)C(c3ccc(OC(=O)c4cccs4)c(OC)c3)C2(NC(=O)c2ccc(NC(=O)C3CCCC3)cc2)C(=O)O)ccc1OC(=O)c1cccs1 (centres unmarked) [Compound S4P]
cytotoxicity in the reporter gene test ([4]; final concentration 0.03 mg/ml): cytotoxic
cytotoxicity in the reporter gene test ([4]; final concentration 0.1 mg/ml): cytotoxic

effect on the expression of reporter gene induced by S4P ([2]; Table 3, FIG. 6): inhibit, in a dose-dependent manner
Molecule: Exendin9-39 [reference compound]
